Target: CB2 receptor (hCB2) (Homo sapiens, UniProt P34972)
Assay: competitive radioligand binding, [3H]CP-55, […] displacement

Sequence of CB2 receptor (hCB2) (P34972 whole entry): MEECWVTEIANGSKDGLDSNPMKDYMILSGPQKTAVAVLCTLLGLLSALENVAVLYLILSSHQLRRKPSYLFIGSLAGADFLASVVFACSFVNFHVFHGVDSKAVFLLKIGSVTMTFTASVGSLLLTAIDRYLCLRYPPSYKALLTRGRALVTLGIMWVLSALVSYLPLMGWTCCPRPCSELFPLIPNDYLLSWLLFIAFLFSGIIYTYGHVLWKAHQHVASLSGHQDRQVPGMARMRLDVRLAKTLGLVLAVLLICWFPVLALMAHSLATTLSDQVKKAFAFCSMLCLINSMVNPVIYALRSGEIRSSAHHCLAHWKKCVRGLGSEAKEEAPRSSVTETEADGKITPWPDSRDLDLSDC

## C=C(C)[C@@H]1CC[C@]2(C(=O)O)CC[C@]3(C)[C@H](CC[C@@H]4[C@@]5(C)CC[C@H](O)C(C)(C)[C@@H]5CC[C@]43C)[C@@H]12 [BA, Betulinic acid]
  Ki: 41.2 µM

— article PMC4924623 (Molecular cancer therapeutics, 2012)
